Experiments:
[1] = Toxicity in Balb/c nude mouse xenografted with human A2780 cells assessed as decrease in body weight at 4.75 mg/kg, po bid for 14 days relative to control; assay type: organism-based; design: scale not given: the % may be the effect or the level left; settings: in vivo, 336 h, time 14 day
A2780 [2] = assay: Antitumor activity against human A2780 cells xenografted in BALB/c nu/nu mouse assessed as reduction in DYRK1A autophosphorylation of S520 residue at 37.5 mg/kg, po measured after 2 hrs by western blotting analysis relative to control; assay type: functional; design: scale not given: the % may be the effect or the level left
[3] = Toxicity in Balb/c nude mouse xenografted with human A2780 cells assessed as decrease in body weight at 37.5 mg/kg, po bid for 14 days relative to control; assay type: organism-based; design: scale not given: the % may be the effect or the level left; settings: in vivo, 336 h, time 14 day
[4] = biological target: T1, Dual specificity tyrosine-phosphorylation-regulated kinase 2 (Homo sapiens) (UniProt Q92630); assay: Residual activity of DYRK2 (unknown origin) at 10 nM using Ulight-MBP as substrate and ATP as co-substrate incubated for 40 mins and measured after 1 hr by TR-FRET assay relative to control; settings: time 100.0 min
T1 sequence (whole entry): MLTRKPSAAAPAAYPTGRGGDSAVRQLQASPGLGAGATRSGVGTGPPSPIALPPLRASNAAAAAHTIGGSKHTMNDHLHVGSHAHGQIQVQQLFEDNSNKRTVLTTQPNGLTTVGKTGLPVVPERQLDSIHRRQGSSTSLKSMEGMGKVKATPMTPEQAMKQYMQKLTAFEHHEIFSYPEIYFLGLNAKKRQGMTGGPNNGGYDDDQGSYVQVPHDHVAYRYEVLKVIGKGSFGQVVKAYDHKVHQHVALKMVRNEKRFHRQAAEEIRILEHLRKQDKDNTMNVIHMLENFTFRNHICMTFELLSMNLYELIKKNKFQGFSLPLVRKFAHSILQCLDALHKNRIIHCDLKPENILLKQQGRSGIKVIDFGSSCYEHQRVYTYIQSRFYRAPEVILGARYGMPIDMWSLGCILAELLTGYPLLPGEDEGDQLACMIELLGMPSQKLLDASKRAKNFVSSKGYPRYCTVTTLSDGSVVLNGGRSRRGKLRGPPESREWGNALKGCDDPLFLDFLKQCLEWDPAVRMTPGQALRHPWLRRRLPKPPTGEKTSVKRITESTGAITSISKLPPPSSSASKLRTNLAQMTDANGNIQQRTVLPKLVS

[5] = Toxicity in Balb/c nude mouse xenografted with human A2780 cells assessed as decrease in body weight at 75 mg/kg, po bid for 14 days relative to control; assay type: organism-based; design: scale not given: the % may be the effect or the level left; settings: in vivo, 336 h, time 14 day
RS4-11 [6] = assay: Antitumor activity against human RS4-11 cells xenografted in BALB/c nu/nu mouse assessed as reduction in DYRK1A autophosphorylation of S520 residue at 3.125 mg/kg, po measured after 2 hrs by western blotting analysis relative to control; assay type: functional; design: scale not given: the % may be the effect or the level left
[7] = biological target: Dual specificity protein kinase CLK4 (Homo sapiens) (UniProt Q9HAZ1); assay: Residual activity of CLK4 (unknown origin) at 10 nM using Ulight-MBP as substrate and ATP as co-substrate incubated for 40 mins and measured after 1 hr by TR-FRET assay relative to control; settings: time 100.0 min
RS4-11 [8] = assay: Antitumor activity against human RS4-11 cells xenografted in BALB/c nu/nu mouse assessed as reduction in DYRK1A autophosphorylation of S520 residue at 12.5 mg/kg, po measured after 2 hrs by western blotting analysis relative to control; assay type: functional; design: scale not given: the % may be the effect or the level left
[9] = Oral bioavailability in BALB/c nu/nu mouse at 3 mg/kg; assay type: ADME, organism-based; settings: in vivo
A2780 [10] = assay: Antitumor activity against human A2780 cells xenografted in Balb/c mouse assessed as inhibition of tumor growth at 75 mg/kg, po bid for 14 days relative to control; assay type: functional; settings: 336 h, time 14 day, read-out: TGI
[11] = Plasma clearance in BALB/c nu/nu mouse at 3 mg/kg, po; assay type: ADME, organism-based
A2780 [12] = assay: Antitumor activity against human A2780 cells xenografted in BALB/c nu/nu mouse assessed as reduction in DYRK1A autophosphorylation of S520 residue at 9.375 mg/kg, po measured after 2 hrs by western blotting analysis relative to control; assay type: functional; design: scale not given: the % may be the effect or the level left
A2780 [13] = assay: Antitumour activity against human A2780 cells xenografted in BALB/c nu/nu mouse assessed as reduction in DYRK1A autophosphorylation of S520 residue at 9.375 mg/kg, po measured after 6 hrs by western blotting analysis relative to control; assay type: functional; design: scale not given: the % may be the effect or the level left
A2780 [14] = assay: cells; settings: Homo sapiens, A2780, 120 h
[15] = biological target: Casein kinase I isoform gamma-1 (Homo sapiens) (UniProt Q9HCP0); assay: Residual activity of CSNK1G1 (unknown origin) at 10 nM using Ulight-MBP as substrate and ATP as co-substrate incubated for 40 mins and measured after 1 hr by TR-FRET assay relative to control; settings: time 100.0 min
RS4-11 [16] = assay: Antitumor activity against human RS4-11 cells xenografted in BALB/c nu/nu mouse assessed as reduction in DYRK1A autophosphorylation of S520 residue at 25 mg/kg, po measured after 6 hrs by western blotting analysis relative to control; assay type: functional; design: scale not given: the % may be the effect or the level left
SK-N-MC = assay: cells; settings: Homo sapiens, 120 h
A2780 [17] = assay: Antitumor activity against human A2780 cells xenografted in BALB/c […] mouse assessed as reduction in DYRK1A autophosphorylation of S520 residue at 75 mg/kg, po measured after 2 hrs by western blotting analysis relative to control; assay type: functional; design: scale not given: the % may be the effect or the level left
A2780 [18] = assay: Antitumor activity against human A2780 cells xenografted in BALB/c […] mouse assessed as reduction in DYRK1A autophosphorylation of S520 residue at 75 mg/kg, po measured after 6 hrs by western blotting analysis relative to control; assay type: functional; design: scale not given: the % may be the effect or the level left
C-33-A = assay: cells; settings: Homo sapiens, 120 h
hERG (KCNH2) = hERG (KCNH2) (Homo sapiens, UniProt Q12809); assay: Inhibition of hERG at 10 uM by patch clamp method relative to control; assay type: toxicity
RS4-11 [19] = assay: Antitumor activity against human RS4-11 cells xenografted in BALB/c nu/nu mouse reduction in DYRK1A autophosphorylation of S520 residue at 6.25 mg/kg, po measured after 6 hrs by western blotting analysis relative to control; assay type: functional; design: scale not given: the % may be the effect or the level left
[20] = biological target: Dual specificity protein kinase CLK1 (Homo sapiens) (UniProt P49759); assay: Residual activity of CLK1 (unknown origin) at 10 nM using Ulight-MBP as substrate and ATP as co-substrate incubated for 40 mins and measured after 1 hr by TR-FRET assay relative to control; settings: time 100.0 min
A2780 [21] = assay: Antitumor activity against human A2780 cells xenografted in Balb/c mouse assessed as inhibition of tumor growth at 4.75 mg/kg, po bid for 14 days relative to control; assay type: functional; settings: 336 h, time 14 day, read-out: TGI
A2780 [22] = assay: Antitumor activity against human A2780 cells xenografted in Balb/c mouse assessed as inhibition of tumor growth at 18.75 mg/kg, po bid for 14 days relative to control; assay type: functional; settings: 336 h, time 14 day, read-out: TGI

Sequence of hERG (KCNH2) (Q12809 whole entry): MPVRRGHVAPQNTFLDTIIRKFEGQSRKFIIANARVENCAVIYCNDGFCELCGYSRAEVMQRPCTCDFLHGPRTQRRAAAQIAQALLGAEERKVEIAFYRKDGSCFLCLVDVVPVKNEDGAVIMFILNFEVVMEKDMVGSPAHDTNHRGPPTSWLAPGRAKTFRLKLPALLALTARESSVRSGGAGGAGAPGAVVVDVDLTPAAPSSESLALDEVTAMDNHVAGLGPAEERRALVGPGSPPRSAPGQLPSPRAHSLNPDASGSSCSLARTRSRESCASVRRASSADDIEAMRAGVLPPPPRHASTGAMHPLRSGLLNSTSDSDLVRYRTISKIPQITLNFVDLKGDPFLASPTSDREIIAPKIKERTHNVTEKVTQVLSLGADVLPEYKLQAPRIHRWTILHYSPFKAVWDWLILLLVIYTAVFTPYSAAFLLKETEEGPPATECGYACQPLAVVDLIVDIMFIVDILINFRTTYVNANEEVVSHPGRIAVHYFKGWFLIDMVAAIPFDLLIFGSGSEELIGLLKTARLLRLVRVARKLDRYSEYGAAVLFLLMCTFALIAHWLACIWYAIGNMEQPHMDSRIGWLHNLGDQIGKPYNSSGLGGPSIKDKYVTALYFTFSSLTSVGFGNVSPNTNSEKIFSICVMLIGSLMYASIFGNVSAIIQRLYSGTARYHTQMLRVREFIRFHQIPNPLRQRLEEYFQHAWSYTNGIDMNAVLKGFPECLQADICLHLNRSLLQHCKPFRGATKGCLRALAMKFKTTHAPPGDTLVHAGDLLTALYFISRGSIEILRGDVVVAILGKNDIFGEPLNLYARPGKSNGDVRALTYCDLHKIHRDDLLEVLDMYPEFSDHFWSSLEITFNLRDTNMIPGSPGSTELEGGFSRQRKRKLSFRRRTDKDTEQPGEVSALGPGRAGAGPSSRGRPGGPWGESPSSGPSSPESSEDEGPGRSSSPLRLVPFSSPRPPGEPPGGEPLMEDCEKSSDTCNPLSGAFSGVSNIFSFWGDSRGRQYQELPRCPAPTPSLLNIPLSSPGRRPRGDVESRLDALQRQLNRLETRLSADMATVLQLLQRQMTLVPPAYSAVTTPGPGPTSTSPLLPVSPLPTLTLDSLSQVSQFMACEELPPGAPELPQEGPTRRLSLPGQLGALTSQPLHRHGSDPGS
Sequence of Dual specificity protein kinase CLK1 (Homo sapiens) (P49759 whole entry, looked up): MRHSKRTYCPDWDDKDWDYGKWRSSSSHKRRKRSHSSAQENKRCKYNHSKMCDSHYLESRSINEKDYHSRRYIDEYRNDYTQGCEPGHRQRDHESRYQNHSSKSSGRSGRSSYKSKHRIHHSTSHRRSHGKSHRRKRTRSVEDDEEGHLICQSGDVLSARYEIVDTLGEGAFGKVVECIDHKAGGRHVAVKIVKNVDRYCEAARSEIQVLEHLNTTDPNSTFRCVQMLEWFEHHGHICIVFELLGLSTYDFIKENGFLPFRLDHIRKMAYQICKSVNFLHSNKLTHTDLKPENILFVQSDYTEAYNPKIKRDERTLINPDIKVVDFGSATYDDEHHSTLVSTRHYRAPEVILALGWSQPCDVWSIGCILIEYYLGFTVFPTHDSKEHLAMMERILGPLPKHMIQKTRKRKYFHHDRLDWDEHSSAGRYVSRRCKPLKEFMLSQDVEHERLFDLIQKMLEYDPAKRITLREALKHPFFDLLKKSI
Sequence of Casein kinase I isoform gamma-1 (Homo sapiens) (Q9HCP0 whole entry, looked up, canonical isoform): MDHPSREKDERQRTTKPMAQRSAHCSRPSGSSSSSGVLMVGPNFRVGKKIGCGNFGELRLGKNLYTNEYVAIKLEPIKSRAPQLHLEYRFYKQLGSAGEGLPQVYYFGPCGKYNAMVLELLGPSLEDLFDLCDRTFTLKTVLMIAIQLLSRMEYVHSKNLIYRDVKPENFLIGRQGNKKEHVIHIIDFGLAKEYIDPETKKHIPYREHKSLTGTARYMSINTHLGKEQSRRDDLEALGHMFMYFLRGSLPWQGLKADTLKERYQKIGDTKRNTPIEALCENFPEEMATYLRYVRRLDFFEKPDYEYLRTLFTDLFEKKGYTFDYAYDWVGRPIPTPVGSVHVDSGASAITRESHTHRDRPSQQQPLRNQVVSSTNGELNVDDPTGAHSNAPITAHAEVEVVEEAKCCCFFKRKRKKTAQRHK
Sequence of Dual specificity protein kinase CLK4 (Homo sapiens) (Q9HAZ1 whole entry, looked up): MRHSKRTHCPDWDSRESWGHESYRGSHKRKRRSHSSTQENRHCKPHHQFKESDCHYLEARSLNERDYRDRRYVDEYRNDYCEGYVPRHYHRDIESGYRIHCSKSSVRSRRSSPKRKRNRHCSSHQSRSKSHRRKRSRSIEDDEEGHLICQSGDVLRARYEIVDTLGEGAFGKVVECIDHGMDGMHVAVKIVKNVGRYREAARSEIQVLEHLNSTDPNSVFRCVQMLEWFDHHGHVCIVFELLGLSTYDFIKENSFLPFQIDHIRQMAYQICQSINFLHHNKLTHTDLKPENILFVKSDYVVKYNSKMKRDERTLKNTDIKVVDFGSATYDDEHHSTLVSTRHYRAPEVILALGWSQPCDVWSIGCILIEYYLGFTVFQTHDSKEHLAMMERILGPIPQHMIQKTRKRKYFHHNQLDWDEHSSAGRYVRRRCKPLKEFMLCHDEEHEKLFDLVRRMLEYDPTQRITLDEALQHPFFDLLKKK

residual activity [4]: 1.6%
residual activity [7]: 52%
bioavailability [9]: 39%
CL/F [11]: 226 mL/min/kg
IC50 (A2780 [14]): 1540 nM
residual activity [15]: 69%
IC50 (SK-N-MC): 958 nM
IC50 (C-33-A): 1020 nM
residual activity [20]: 48%
Structure (SMILES): Cc1nc2ccc(-c3cc(N)nc(N)c3)nc2n1C1CC1
Activity [1]: 1.5%
Activity (A2780 [2]): 82%
Activity [3]: 9.7%
Activity [5]: 16.3%
Activity (RS4-11 [6]): 51%
Activity (RS4-11 [8]): 87%
inhibition in vivo at 75 mg/kg (A2780 [10]): 92%
Activity (A2780 [12]): 60%
Activity (A2780 [13]): 10%
Activity (RS4-11 [16]): 91%
Activity (A2780 [17]): 80%
Activity (A2780 [18]): 92%
inhibition at 10 µM (hERG (KCNH2)): 52%
Activity (RS4-11 [19]): 25%
inhibition in vivo at 4.75 mg/kg (A2780 [21]): 28%
inhibition in vivo at 18.75 mg/kg (A2780 [22]): 55%

— ChEMBL document CHEMBL5042474, “Structure-Guided Discovery of Potent and Selective DYRK1A Inhibitors” (J Med Chem, 2021)
